Measured values taken from patent US8685966B2, “GRP94 inhibitors” (University of Kansas, priority 2011, dated 2014).
“Also recorded” adds a separate entry of the source. Read-outs that look alike come from different tables or passages of the source.

Experiments:
[1] = test system: BiP expression; assay: Induction of BiP expression (immunoblot); format: cell-based
[2] = test system: IGF-II secretion; conditions: serum-starved C2C12 myoblast cells; cited from earlier work
[3] = test system: HeLa cells; assay: HeLa cell survival (XTT assay), GRP94-sufficient or -deficient cells; format: cell-based; conditions: Homo sapiens, 48 hrs, regardless of presence of GRP94, read-out: IC50 for HeLa cell viability
Experimental: GRP94 and BiP were detected by the anti-KDEL antibody. *, an unknown KDEL-containing band. […] Cell survival was measured by XTT assay (n=4).
Similar results were obtained with other cell lines (e.g. C2C12 in FIG. 6).

[4] = test system: cytosolic Hsp90 (Hsp90α and Hsp90β); assay: Western blot of Hsp90α/β client proteins (Raf, Akt) in HEK293 cell lysates; format: cell-based, human; conditions: for concentration at which Hsp90α/β client proteins (Raf, Akt) are degraded/affected: HEK293, Western blot
Experimental: As previously mentioned, it has been shown that Grp94 is not essential for tissue culture cell viability.^28 In contrast, loss of functional Hsp90α or Hsp90β results in cell death. […]. […] To support these findings, western blot analyses of Hsp90α/β client proteins were performed from HEK293 cell lysates. […].
Briefly, HEK293 cells were plated in 6-well plates and treated with various concentrations of drug, GDA in DMSO (1% DMSO final concentration), or vehicle (DMSO) for 24 h. Cells were harvested in cold PBS and lysed in mammalian protein extraction reagent (MPER, Pierce) and protease inhibitors (Roche) on ice for 1 h. Lysates were clarified at 14,000 g for 10 min at 4° C. Protein concentrations were determined with the Pierce BCA assay kit per the manufacturer's instructions. Equal amounts of protein (10 μg) were electrophoresed under reducing conditions, transferred to a PVDF membrane, and immunoblotted with the corresponding specific antibodies. Membranes were incubated with an appropriate horseradish peroxidase-labeled secondary anti-body, developed with chemiluminescent substrate, and visualized.

[5] = test system: IGF-II secretion; assay: IGF-II secretion by serum-starved C2C12 cells (ELISA); format: cell-based, mouse; conditions: 10 μM
Experimental: IGF-II is a second well-defined Grp94-dependent client protein and active Grp94 is required for the secretion of IGF-11 (Ostrovsky et al., 2009).
For IGF-II ELISA, plates were coated with anti-IGF-II (MAb 792, R&D Systems) and incubated with the test cell media. The bound IGF-II was detected with a biotinylated anti-IGF-II antibody (BAF792, R&D Systems) and developed with streptavidin-HRP (R&D Systems) according to the manufacturer's recommended procedure. Optical density units were converted to concentrations of the growth factor with a standard curve generated with recombinant IGF-II (792-MG) (R&D Systems). Data were acquired in duplicate on a microtiter-plate reader (Dynatech Laboratories, Chantilly, Va.) at 450 nm.

[6] = test system: Drosophila larvae (w1118); assay: Drosophila larval growth on supplemented fly food; format: in vivo
From the text: In the absence of zygotic expression of Gp93, however, larvae display a pronounced growth defect, commensurate with disrupted gut epithelial morphology, decreased gut nutrient uptake, and marked aberrations in copper cell structure and function. As a consequence, loss of Gp93 expression is larval lethal in Drosophila. […]. […] In parallel experiments, larval gut tissue was obtained from each of the feeding conditions and gut epithelial morphology evaluated by fluorescence microscopy. […] Pharmacokinetic studies of compound absorption and metabolism may provide addition insights into this partial phenotypic behavior.
Compound effects on Drosophila larval growth were examined as described in 26. […]

[7] = test system: National Cancer Institute 60-cell panel (NCI-60); assay: NCI 60-cell panel cytotoxicity profile; format: cell-based
From the text: This should not dampen excitement for selective Grp94 inhibitors, as numerous studies have shown 3-dimensional tumor response to be drastically different from cell culture responses. Requisite studies are underway to understand the effect of Grp94 inhibition on 3-dimensional tumor models.

[8] = test system: cytosolic Hsp90; assay: Akt stability in the BiP induction experiment (immunoblot); format: cell-based; conditions: same concentrations as BiP induction
Experimental: NIH-3T3 cells were treated with 25 μM of 17-AAG (AAG), 10 μM of RDC or 0-50 μM of 2. After 18 hrs cells were harvested for SDS-PAGE and analyzed by immunoblotting. Grp94, BiP and PDIA6 were detected with the monoclonal anti-KDEL antibody, AKT by rabbit anti-serum. 14-3-3 served as loading control. Numbers below BiP, Grp94, and AKT bands are the relative expression levels, determined by densitometry.
Inhibition of Hsp90 is also known to induce expression of Hsp70 and this response is useful as a diagnostic tool (FIG. 11).^61-62 A parallel response exists when Grp94 expression is ablated by RNAi, or when its activity is inhibited by RDC or 17-AAG: a transcriptional response is initiated that leads to upregulation of expression of BiP, the ER member of the Hsp70 family (Eletto et al., submitted). We therefore assessed the ability of 2 to cause BiP up-regulation, in comparison to pan-Hsp90 inhibitors. […] However, at these concentrations, the compound also destabilized Akt, a hallmark of inhibition of cytosolic Hsp90 (FIG. 12).

[9] = test system: C2C12 cells; assay: C2C12 cell viability (XTT assay); conditions: same treatment as IGF-II assay
Experimental: The viability of cells treated as in A was measured at each of the indicated concentrations by the XTT assay.
C2C12 cells (ATCC, Rockville, Md.) were induced to differentiate either by complete withdrawal of serum or by shifting to medium supplemented with 2% house serum. […] Cell growth was measured with the XTT formazan colorimetric assay (Roche), cells were grown in 3% serum, to limit the background of the assay.

[10] = target: Grp94 (Canis lupus familiaris, UniProt P41148); assay: Binding affinity by fluorescent quenching, Grp94
Sequence of Grp94 (Canis lupus familiaris, UniProt P41148) (P41148 22-804): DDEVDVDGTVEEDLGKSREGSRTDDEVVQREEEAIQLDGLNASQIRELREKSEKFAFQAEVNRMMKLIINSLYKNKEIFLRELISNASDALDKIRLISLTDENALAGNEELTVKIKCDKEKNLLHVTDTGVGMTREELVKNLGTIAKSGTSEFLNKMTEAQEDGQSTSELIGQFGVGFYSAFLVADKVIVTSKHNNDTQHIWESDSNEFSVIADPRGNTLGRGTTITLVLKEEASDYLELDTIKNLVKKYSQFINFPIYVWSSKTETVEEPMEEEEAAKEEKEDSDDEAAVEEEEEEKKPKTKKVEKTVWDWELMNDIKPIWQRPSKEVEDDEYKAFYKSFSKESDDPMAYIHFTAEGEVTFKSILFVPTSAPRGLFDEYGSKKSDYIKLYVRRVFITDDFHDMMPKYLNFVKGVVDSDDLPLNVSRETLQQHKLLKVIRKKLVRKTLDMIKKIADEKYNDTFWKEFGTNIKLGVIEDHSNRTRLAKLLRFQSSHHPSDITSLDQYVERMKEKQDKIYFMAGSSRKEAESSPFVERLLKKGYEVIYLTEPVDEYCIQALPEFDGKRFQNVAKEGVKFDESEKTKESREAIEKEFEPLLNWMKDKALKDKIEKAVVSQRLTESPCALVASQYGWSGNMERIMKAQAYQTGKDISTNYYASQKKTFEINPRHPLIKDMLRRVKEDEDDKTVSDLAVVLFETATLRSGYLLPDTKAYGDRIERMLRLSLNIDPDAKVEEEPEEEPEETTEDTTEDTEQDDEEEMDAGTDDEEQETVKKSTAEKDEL

[11] = target: yHsp82 (yeast homolog of Hsp90β) (Saccharomyces cerevisiae, UniProt P02829); assay: Binding affinity by fluorescent quenching, yHsp82; conditions: read-out: Kd value for yHsp82 (yeast homolog of Hsp90β), FIG. 1B
Sequence of yHsp82 (yeast homolog of Hsp90β) (P02829 whole entry): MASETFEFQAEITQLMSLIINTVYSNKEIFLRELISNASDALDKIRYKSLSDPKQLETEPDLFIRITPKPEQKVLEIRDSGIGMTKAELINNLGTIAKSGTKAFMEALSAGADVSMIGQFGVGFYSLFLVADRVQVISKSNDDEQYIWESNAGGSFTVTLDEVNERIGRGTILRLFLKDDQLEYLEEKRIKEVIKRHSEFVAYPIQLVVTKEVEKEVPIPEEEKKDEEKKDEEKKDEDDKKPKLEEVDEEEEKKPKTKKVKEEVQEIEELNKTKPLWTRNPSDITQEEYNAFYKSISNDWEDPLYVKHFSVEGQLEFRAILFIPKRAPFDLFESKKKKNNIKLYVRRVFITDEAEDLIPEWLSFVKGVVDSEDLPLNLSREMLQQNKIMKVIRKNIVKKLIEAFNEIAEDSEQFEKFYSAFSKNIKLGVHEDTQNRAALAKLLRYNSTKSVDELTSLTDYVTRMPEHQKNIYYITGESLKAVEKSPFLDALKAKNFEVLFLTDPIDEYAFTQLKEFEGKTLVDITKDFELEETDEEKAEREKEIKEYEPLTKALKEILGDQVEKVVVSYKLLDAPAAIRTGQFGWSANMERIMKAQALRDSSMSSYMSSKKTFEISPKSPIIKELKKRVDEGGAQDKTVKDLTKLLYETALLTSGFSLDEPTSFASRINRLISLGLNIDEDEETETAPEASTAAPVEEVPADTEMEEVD

[12] = target: T1, Grp94 (Homo sapiens, UniProt P14625); assay: Toll trafficking assay in Toll-transfected HEK293 cells; format: cell-based; conditions: Toll presentation inhibition versus Western blot of Hsp90-dependent client proteins
T1 construct: endogenous in cells; host or cells: HEK293 (transfected only with pcDNA6B-Toll-Flag, the read-out client)
T1 sequence (P14625 22-803): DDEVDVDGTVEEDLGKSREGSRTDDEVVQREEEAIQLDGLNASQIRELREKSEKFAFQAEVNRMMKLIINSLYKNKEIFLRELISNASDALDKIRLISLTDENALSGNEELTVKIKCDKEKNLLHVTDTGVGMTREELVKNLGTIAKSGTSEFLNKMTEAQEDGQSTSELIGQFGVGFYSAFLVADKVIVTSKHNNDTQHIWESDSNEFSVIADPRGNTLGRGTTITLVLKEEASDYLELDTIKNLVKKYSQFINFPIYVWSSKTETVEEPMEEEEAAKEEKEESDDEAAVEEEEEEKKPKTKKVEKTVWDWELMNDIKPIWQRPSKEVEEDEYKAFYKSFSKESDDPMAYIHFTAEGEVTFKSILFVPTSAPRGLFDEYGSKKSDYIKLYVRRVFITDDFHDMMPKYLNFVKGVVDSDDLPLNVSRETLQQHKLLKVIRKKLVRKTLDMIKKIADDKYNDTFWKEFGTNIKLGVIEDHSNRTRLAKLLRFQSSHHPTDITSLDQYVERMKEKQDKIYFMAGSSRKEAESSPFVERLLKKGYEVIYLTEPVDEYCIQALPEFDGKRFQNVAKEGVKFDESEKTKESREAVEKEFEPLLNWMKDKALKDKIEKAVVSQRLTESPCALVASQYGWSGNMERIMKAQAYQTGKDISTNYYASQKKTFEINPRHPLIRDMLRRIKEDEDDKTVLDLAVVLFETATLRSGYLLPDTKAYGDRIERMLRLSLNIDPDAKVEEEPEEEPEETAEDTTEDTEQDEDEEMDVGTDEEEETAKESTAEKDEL

[13] = test system: MCF7 (ER+) breast cancer cells; assay: Anti-proliferative activity, MCF7; format: cell-based, human; conditions: said to be mimicked by the client degradation value; read-out: observed IC50 in MCF7
Experimental: (§1) As previously mentioned, it has been shown that Grp94 is not essential for tissue culture cell viability.^28 In contrast, loss of functional Hsp90α or Hsp90β results in cell death. Therefore, we investigated the anti-proliferative effects of compounds 1-5 against two breast cancer cells, MCF7 (ER+) and SKBR3 (Her2 overexpressing, ER—), and against the non-transformed HEK293 cells. […] To support these findings, western blot analyses of Hsp90α/β client proteins were performed from HEK293 cell lysates.

[14] = test system: SKBR3 (Her2 overexpressing, ER—) breast cancer cells; assay: Anti-proliferative activity, SKBR3; format: cell-based, human; conditions: said to be mimicked by the client degradation value; read-out: observed IC50 in SkBR3
Experimental: as §1

[15] = read-out: Kd value for Grp94, fluorescent quenching, FIG. 1B
[16] = read-out: kd for binding to the Hsp90 isoform GRP94

For C=CCNC1=C2C[C@@H](C)C[C@H](OC)[C@H](O)[C@@H](C)/C=C(\C)[C@H](OC(N)=O)[C@@H](OC)/C=C\C=C(/C)C(=O)NC(=CC1=O)C2=O [Compound 17-AAG, 17-(allylamino)-17-demethoxygeldanamycin], which BiP up-regulation ([1]; 25 μM, data not shown) is on record?
Its BiP up-regulation is “did cause BiP up-regulation”.

What about the “secretion of IGF-II (previously demonstrated)” value [2] of the same compound?
The value was “prevent the secretion of IGF-II”.

Which IC50 [3] does the source give for C[C@@H]1C[C@H]2O[C@@H]2/C=C\C=C\C(=O)Cc2c(Cl)c(O)cc(O)c2C(=O)O1 [RDC, radicicol] here?
Its IC50 is 8000 nM.

What about the BiP up-regulation ([1]; 10 μM) of the same compound?
Its BiP up-regulation is “did cause BiP up-regulation”.

Which HSP70 induction ([4]; HEK293, 100 μM) does the source give for COC(=O)c1c(O)cc(O)c(Cl)c1CCc1nccn1Cc1ccccc1 [Compound 2, Methyl 2-(2-(1-benzyl-1H-imidazol-2-yl)ethyl)-3-chloro-4,6-dihydroxybenzoate] here?
The HSP70 induction was “induction of HSP70”.

What about the “concentration at which Hsp90α/β client proteins (Raf, Akt) are degraded/affected” value [4] of the same compound?
Its value is 100 µM.

What about the “reduction of IGF-II secretion” value [5] of the same compound?
Its value is “Approximately 60%”.

And the BiP up-regulation ([1]; 0-75 μM, C2C12 cells)?
Its BiP up-regulation is “did not lead to up-regulation of BiP”.

What about the “concentration inducing BiP expression” value ([1]; resembles RDC) of the same compound?
Its value is “above 200 μM”.

What about the Drosophila larval growth ([6]; 250 μg/ml to 1 mg/ml in fly food, 96 hours) of the same compound?
Its Drosophila larval growth is “dramatic growth phenotype; also recorded: stunted the growth of Drosophila larvae in a dose-dependent manner”.

And the “larval gut copper cell structure” value ([6]; fluorescence microscopy of gut tissue, data not shown)?
The value was “No grossly discernible effects on copper cell structure”.

What about the “cytotoxicity across all 60 transformed cell lines” value [7] of the same compound?
The value was “negligible cytotoxicity”.

And the “concentration at which Akt is destabilized” value [8]?
The value was “above 200 μM”.

What about the “effect on cell viability” value [9] of the same compound?
The value was “little effect on cell viability”.

With COC(=O)c1c(O)cc(O)c(Cl)c1CCC(=O)NC1=CC(=O)C(OC)=CC1=O [Radamide] as the compound, how does the “fold higher binding affinity for full-length Grp94 than yHsp82” value ([10]; full-length Grp94 vs yHsp82) read?
The value was “approximately 2 fold”.

What about the Kd [10, 15] of the same compound?
The Kd was 520 ± 130 nM.

What about the Kd [10, 16] of the same compound?
The Kd was 254 nM.

And the Kd [11]?
The Kd was 870 ± 140 nM.

Which “selectivity for GRP94 versus cytoplasmic Hsp90 α/β” value [12] does the source give for cis-radamide [cRDA] here?
Its value is “minimal selectivity”.

What about the “concentration at which Hsp90α/β client proteins (Raf, Akt) are degraded/affected” value [4] of the same compound?
Its value is ~1 µM.

And the IC50 [13]?
The IC50 was ~1000 nM.

And the IC50 [14]?
The IC50 was ~1000 nM.

What about the Kd [10, 15] of the same compound?
Its Kd is 110 ± 20 nM.

What about the Kd [10, 16] of the same compound?
The Kd was 110 nM.

And the Kd [11]?
The Kd was 240 ± 120 nM.
